# Measurements from US20260144805A1, “CANNABIDIOL COMPOSITIONS FOR USE IN THE TREATMENT OF NEURODEGENERATIVE AND NEUROLOGICAL DISORDERS” (JAZZ PHARMACEUTICALS RESEARCH UK LIMITED, priority 2022, published 2026).
# Key:
# [1] = test system: valproic acid-induced autism spectrum disorder (ASD) mouse model; experiment: Valproic acid-induced ASD model, autism-like behaviors, DS vs sCBD and risperidone (Example 6, Table P); format: in vivo; design: key to Adult open field hyperactivity (spontaneous LMA on day 1) / Adult open field hyperactivity (LMA on day 2) / Adult marble burying / Adult grooming / Juvenile vocalisation: +: improvement; Ø: no change; −: not tested; conditions: 0.125 mg/kg I.P.
# Source text: (§1) The main objective of the following study was to assess the effect of the drug substance (DS) of Example 1 in ameliorating autism-like behavior in valproic acid-induced autism spectrum disorder (ASD) mouse model (FIGS. 19A-B).
# [2] = test system: valproic acid-induced autism spectrum disorder (ASD) mouse model; experiment: Valproic acid-induced ASD model, social behavior (Example 6, Table P); format: in vivo; design: key: +: improvement; Ø: no change; −: not tested; conditions: 0.125 mg/kg I.P.
# Source text: as §1
compound,measurement,setting,value
Cc1nc2n(c(=O)c1CCN1CCC(c3noc4cc(F)ccc34)CC1)CCCC2 [Risperidone],Adult grooming,[1]; control beside DS,+
same,Adult marble burying,[1]; control beside DS,+
same,Adult open field hyperactivity (LMA on day 2),[1]; control beside DS,+
same,Adult open field hyperactivity (spontaneous LMA on day 1),[1]; control beside DS,+
same,Adult grooming,[1]; control beside sCBD,+
same,Adult marble burying,[1]; control beside sCBD,+
same,Adult open field hyperactivity (LMA on day 2),[1]; control beside sCBD,+
same,Adult open field hyperactivity (spontaneous LMA on day 1),[1]; control beside sCBD,+
same,Adult marble burying,[1]; control beside sCBD-2,+
same,Adult open field hyperactivity (LMA on day 2),[1]; control beside sCBD-2,Ø
same,Adult open field hyperactivity (spontaneous LMA on day 1),[1]; control beside sCBD-2,+
same,Adult active social behavior,[2]; control beside DS,Ø
same,Juvenile play behavior,[2]; control beside DS,Ø
same,Adult active social behavior,[2]; control beside sCBD,+
same,Juvenile play behavior,[2]; control beside sCBD,+
same,Adult active social behavior,[2]; control beside sCBD-2,Ø
same,Juvenile play behavior,[2]; control beside sCBD-2,Ø
